Assay results published in patent publication US20150368248A1, “2-SUBSTITUTED-6-BIARYLMETHYLAMINO-9-CYCLOPENTYL-9H-PURINE DERIVATIVES, USE THEREOF AS MEDICAMENTS, AND PHARMACEUTICAL COMPOSITIONS” (UNIVERZITA PALACKEHO V OLOMOUCI, priority 2013, published 2015).

Tests used:
CDK1/cyclin B = target: T1, CDK1/cyclin B (Homo sapiens, UniProt P06493); assay: Kinase inhibition assay, recombinant kinase, [γ-33P]ATP; type: biochemical; conditions: read-out: Kinase inhibition IC50, CDK1
T1 construct: made in house; host or cells: Sf9 insect cells (baculovirus)
T1 sequence (P06493 whole entry, species assumed): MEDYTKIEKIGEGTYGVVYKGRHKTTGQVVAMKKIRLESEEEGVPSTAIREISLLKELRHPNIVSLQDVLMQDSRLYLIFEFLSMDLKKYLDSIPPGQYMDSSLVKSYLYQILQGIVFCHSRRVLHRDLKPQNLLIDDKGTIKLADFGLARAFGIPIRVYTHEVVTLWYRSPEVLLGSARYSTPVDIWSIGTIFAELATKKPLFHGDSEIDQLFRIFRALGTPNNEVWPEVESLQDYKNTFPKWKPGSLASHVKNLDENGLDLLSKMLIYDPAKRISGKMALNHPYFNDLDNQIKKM
T1 sequence (P14635 whole entry partner, species assumed): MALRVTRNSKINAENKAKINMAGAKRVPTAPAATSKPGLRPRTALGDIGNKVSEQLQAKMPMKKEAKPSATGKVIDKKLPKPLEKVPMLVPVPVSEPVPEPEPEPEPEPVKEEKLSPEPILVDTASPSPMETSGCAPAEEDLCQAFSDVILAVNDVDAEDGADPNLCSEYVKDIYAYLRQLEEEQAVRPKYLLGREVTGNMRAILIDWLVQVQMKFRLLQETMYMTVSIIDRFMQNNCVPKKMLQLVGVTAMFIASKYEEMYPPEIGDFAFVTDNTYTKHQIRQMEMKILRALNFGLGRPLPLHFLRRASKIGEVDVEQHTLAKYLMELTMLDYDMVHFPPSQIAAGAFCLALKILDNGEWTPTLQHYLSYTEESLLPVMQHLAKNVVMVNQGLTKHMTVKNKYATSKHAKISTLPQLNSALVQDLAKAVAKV
Method in brief: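 CDK1/cyclin B was expressed in Sf9 cells by baculovirus. Reactions used [γ-33P]ATP in 60 mM HEPES-NaOH pH 7.5 with 3 mM MgCl2, 3 mM MnCl2, 3 mM Na-orthovanadate and 1.2 mM DTT. They were stopped with 3% H3PO4, spotted on P-81 phosphocellulose, washed and quantified by phosphor imaging.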

PLC/PRF/5 = assay: MTT cytotoxicity assay (Example 30); type: cell-based; conditions: Homo sapiens, PLC-PRF-5, 72 h; MTT, three days after drug addition; read-out: Inhibitory concentration IC50, PLC/PRF/5
HCC-1.1 (3sp) = assay: MTT cytotoxicity assay (Example 30); type: cell-based; conditions: Homo sapiens, 72 h; MTT, three days after drug addition; read-out: Inhibitory concentration IC50, 3sp
HUH-7 = assay: MTT cytotoxicity assay (Example 30); type: cell-based; conditions: Homo sapiens, Huh-7, 72 h; MTT, three days after drug addition; read-out: Inhibitory concentration IC50, HUH-7
HCC-1.2 (3p) = assay: MTT cytotoxicity assay (Example 30); type: cell-based; conditions: Homo sapiens, HCC-1.2, 72 h; MTT, three days after drug addition; read-out: Inhibitory concentration IC50, 3p
[1] = system: caspase-3/7 activity in PLC/PRF/5 cell line; assay: One-step cellular caspase-3/7 activity assay; type: cell-based, human; conditions: 24 hours incubation, relative to 0 nM = 1.00
Method in brief: (§1)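 Hep3B or PLC/PRF/5 cells, plated overnight, were exposed to compounds for 24 h. Lysis buffer containing 150 μM Ac-DEVD-AMC substrate was added, and plates were incubated at 37° C. Caspase-3/7 activity was read as AMC fluorescence (ex 346/em 442 nm) after 6 h.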

[2] = system: caspase-3/7 activity in Hep3B cell line; assay: One-step cellular caspase-3/7 activity assay; type: cell-based, human; conditions: 24 hours, 0 nM = 1.00
Method in brief: as §1

[3] = system: p53-regulated transcription in Arn8 cells; assay: p53-dependent transcriptional activity, β-galactosidase reporter; type: cell-based; conditions: 24 h incubation
Method in brief: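 Arn8 melanoma cells stably carrying the p53-responsive pRGCAfoslacZ reporter, exposed to compounds for 24 h. Cells permeabilised with 0.3% Triton X-100 for 15 min, then given 80 μM 4-methylumbelliferyl-β-D-galactopyranoside. β-Galactosidase product fluorescence read after 1 h at 355/460 nm.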

SMILES: NC1CCC(Nc2nc(NCc3ccc(-c4ccoc4)nc3)c3ncn(C4CCCC4)c3n2)CC1 (stereo not drawn) [BP36, N^2-(4-amino-cyclohexyl)-9-cyclopentyl-N^6-(6-furan-3-yl-pyridin-3-ylmethyl)-9H-purine-2,6-diamine]
- IC50 (CDK1/cyclin B): 66 nM
- IC50 (PLC/PRF/5): 18 nM
- IC50 (HCC-1.1 (3sp)): 424 nM
- IC50 (HUH-7): 332 nM
- IC50 (HCC-1.2 (3p)): 258 nM
- Relative caspase-3/7 activity in PLC/PRF/5 cell line ([1]; compound concentration 40 nM): 2.34
- Relative caspase-3/7 activity in PLC/PRF/5 cell line ([1]; compound concentration 80 nM): >5.00
- Relative caspase-3/7 activity in PLC/PRF/5 cell line ([1]; compound concentration 160 nM): >5.00
- Relative caspase-3/7 activity in PLC/PRF/5 cell line ([1]; compound concentration 320 nM): >5.00
- Relative caspase-3/7 activity in PLC/PRF/5 cell line ([1]; compound concentration 640 nM): >5.00
- Relative caspase-3/7 activity in PLC/PRF/5 cell line ([1]; compound concentration 1280 nM): >5.00
- Relative caspase-3/7 activity in Hep3B cell line ([2]; 100 nM): 2.67
- Relative caspase-3/7 activity in Hep3B cell line ([2]; 200 nM): 6.19
- Relative caspase-3/7 activity in Hep3B cell line ([2]; 400 nM): 6.55
- Relative caspase-3/7 activity in Hep3B cell line ([2]; 800 nM): 9.80
- Relative caspase-3/7 activity in Hep3B cell line ([2]; 1600 nM): 9.75
- Concentration of maximum activation [3]: 125 nM
- melting point: 165 to 167 °C
